# Assay results published in PubChem BioAssay (NCI).
#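 96-well plates; 48 h exposure; 5 concentrations. Endpoints by linear interpolation between flanking doses. Not reached: highest tested concentration assigned. Definition used: TGI = concentration required for complete inhibition of growth.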
# What was measured:
# Experiment in all cases: NCI tumour cell line growth inhibition, 48 h
# COLO 205 colon = test system: COLO 205 colon
# OVCAR-8 ovarian = test system: OVCAR-8 ovarian
# NCI-H226 lung = test system: NCI-H226 lung
# UO-31 renal = test system: UO-31 renal
# A498 renal = test system: A498 renal
# HS 578T breast = test system: HS 578T breast
# OVCAR-5 ovarian = test system: OVCAR-5 ovarian
# A549 NSCLC = test system: A549 NSCLC
# SN12C renal = test system: SN12C renal
# LOX IMVI melanoma = test system: LOX IMVI melanoma
# MALME-3M melanoma = test system: MALME-3M melanoma
# OVCAR-4 ovarian = test system: OVCAR-4 ovarian
# SW-620 colon = test system: SW-620 colon
# SK-MEL-2 melanoma = test system: SK-MEL-2 melanoma
# IGROV1 ovarian = test system: IGROV1 ovarian
# HCC-2998 colon = test system: HCC-2998 colon
# SF-295 CNS = test system: SF-295 CNS
# SNB-75 CNS = test system: SNB-75 CNS
# UACC-257 melanoma = test system: UACC-257 melanoma
# ACHN renal = test system: ACHN renal
# MOLT-4 leukemia = test system: MOLT-4 leukemia
# HL-60(TB) leukemia = test system: HL-60(TB) leukemia
# HOP-62 NSCLC = test system: HOP-62 NSCLC
# TK-10 renal = test system: TK-10 renal
# HOP-92 NSCLC = test system: HOP-92 NSCLC
# SF-268 CNS = test system: SF-268 CNS
# 786-0 renal = test system: 786-0 renal
# CCRF-CEM leukemia = test system: CCRF-CEM leukemia
# MDA-MB-231 breast = test system: MDA-MB-231 breast
# HCT-116 colon = test system: HCT-116 colon
# SK-MEL-5 melanoma = test system: SK-MEL-5 melanoma
# KM12 colon = test system: KM12 colon
# T-47D breast = test system: T-47D breast
# U251 CNS = test system: U251 CNS
# RXF 393 renal = test system: RXF 393 renal
# SR leukemia = test system: SR leukemia
# DU-145 prostate = test system: DU-145 prostate
# CAKI-1 renal = test system: CAKI-1 renal
# SNB-19 CNS = test system: SNB-19 CNS
# BT-549 breast = test system: BT-549 breast
# HCT-15 colon = test system: HCT-15 colon
# HT29 colon = test system: HT29 colon
# MCF7 breast = test system: MCF7 breast
# NCI-H522 lung = test system: NCI-H522 lung
# OVCAR-3 ovarian = test system: OVCAR-3 ovarian
# SF-539 CNS = test system: SF-539 CNS
# MDA-MB-435 = test system: MDA-MB-435
# K-562 leukemia = test system: K-562 leukemia
# NCI-H23 lung = test system: NCI-H23 lung
# M14 melanoma = test system: M14 melanoma
# UACC-62 melanoma = test system: UACC-62 melanoma
# EKVX NSCLC = test system: EKVX NSCLC
# NCI-H460 lung = test system: NCI-H460 lung
# SK-MEL-28 melanoma = test system: SK-MEL-28 melanoma
# SK-OV-3 ovarian = test system: SK-OV-3 ovarian
# NCI/ADR-RES ovarian = test system: NCI/ADR-RES ovarian
structure (smiles),measurement,setting,value
CC(=O)N(C)c1cc(NCc2ccccc2)ccc1OCc1ccccc1,TGI,COLO 205 colon,54.8 µM
same,TGI,OVCAR-8 ovarian,32.7 µM
same,TGI,NCI-H226 lung,35.9 µM
same,TGI,UO-31 renal,28 µM
same,TGI,A498 renal,30.8 µM
same,TGI,HS 578T breast,91 µM
same,TGI,OVCAR-5 ovarian,38.3 µM
same,TGI,A549 NSCLC,36.7 µM
same,TGI,SN12C renal,33.1 µM
same,TGI,LOX IMVI melanoma,36.2 µM
same,TGI,MALME-3M melanoma,35.3 µM
same,TGI,OVCAR-4 ovarian,36.6 µM
same,TGI,SW-620 colon,56.5 µM
same,TGI,SK-MEL-2 melanoma,30.8 µM
same,TGI,IGROV1 ovarian,30.5 µM
same,TGI,HCC-2998 colon,35 µM
same,TGI,SF-295 CNS,29.6 µM
same,TGI,SNB-75 CNS,41.5 µM
same,TGI,UACC-257 melanoma,31.1 µM
same,TGI,ACHN renal,36.5 µM
same,TGI,MOLT-4 leukemia,50.4 µM
same,TGI,HL-60(TB) leukemia,77.9 µM
same,TGI,HOP-62 NSCLC,> 100 µM
same,TGI,TK-10 renal,33.5 µM
same,TGI,HOP-92 NSCLC,30 µM
same,TGI,SF-268 CNS,30.4 µM
same,TGI,786-0 renal,76.6 µM
same,TGI,CCRF-CEM leukemia,45 µM
same,TGI,MDA-MB-231 breast,30.2 µM
same,TGI,HCT-116 colon,> 100 µM
same,TGI,SK-MEL-5 melanoma,33.8 µM
same,TGI,KM12 colon,47.4 µM
same,TGI,T-47D breast,> 100 µM
same,TGI,U251 CNS,32.9 µM
same,TGI,RXF 393 renal,28.6 µM
same,TGI,SR leukemia,32.8 µM
same,TGI,DU-145 prostate,32.7 µM
same,TGI,CAKI-1 renal,38.6 µM
same,TGI,SNB-19 CNS,35.8 µM
same,TGI,BT-549 breast,40.3 µM
same,TGI,HCT-15 colon,39.2 µM
same,TGI,HT29 colon,43 µM
same,TGI,MCF7 breast,35.2 µM
same,TGI,NCI-H522 lung,34 µM
same,TGI,OVCAR-3 ovarian,32.8 µM
same,TGI,SF-539 CNS,32 µM
same,TGI,MDA-MB-435,32.2 µM
same,TGI,K-562 leukemia,63.5 µM
same,TGI,NCI-H23 lung,57.1 µM
same,TGI,M14 melanoma,50.5 µM
same,TGI,UACC-62 melanoma,31.8 µM
same,TGI,EKVX NSCLC,42.3 µM
same,TGI,NCI-H460 lung,33.4 µM
same,TGI,SK-MEL-28 melanoma,35.4 µM
same,TGI,SK-OV-3 ovarian,43.1 µM
same,TGI,NCI/ADR-RES ovarian,44.8 µM
